System: NCI-H295R
Assay: IC50 (antiproliferative, ATP content)
Conditions: 48 h
In short: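 Adrenocortical carcinoma cells in 1536-well plates (1500 per well, serum-free DMEM plus ITS, overnight culture) were exposed for 48 h at 37 °C, 5% CO2 to pin-transferred compounds at 8 final concentrations ranging 0.6 nM to 46 µM. ATP content was then read as CellTiter-Glo luminescence and normalised to vehicle and positive-control wells. The IC50 came from logistic curve fits, and any compound lacking a concentration response was recorded as above the top dose.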

IC50 [µM]	SMILES
> 46	Cc1c(C(N)=O)cc([N+](=O)[O-])cc1[N+](=O)[O-]
> 46	NS(=O)(=O)c1cc2c(cc1Cl)NC(C(Cl)Cl)NS2(=O)=O (configuration not stated)
> 46	OC[C@H]1OC([S][Au])[C@H](O)[C@@H](O)[C@@H]1O (some centres not stated)
> 46	Cl[C@H](CC4)[C@H](OC)C[C@@H]4/C=[C@](C)/[C@@H](OC([C@]2([H])CCCCN12)=O)[C@H](C)[C@@H](O)CC([C@H](CC)/C=C(C)/C[C@H](C)C[C@H](OC)[C@@]([C@@H](OC)C[C@H]3C)([H])O[C@@]3(O)C(C1=O)=O)=O
> 46	CC/C=C\C/C=C\C/C=C\CCCCCCCC(=O)O
> 46	Nc1ccc(S(=O)(=O)NCc2ccccc2)cc1
> 46	Cc1c(N(C)C)c(=O)n(-c2ccccc2)n1C
> 46	COc1cnc(NS(=O)(=O)c2ccc(N)cc2)nc1
> 46	Cc1nc(Nc2ncc(C(=O)Nc3c(C)cccc3Cl)s2)cc(N2CCN(CCO)CC2)n1
> 46	Cl.c1ccc(CC2=NCCN2)cc1
> 46	NC(=O)NC1NC(=O)NC1=O (configuration not stated)
> 46	Cl.O=C1c2cccc3c2[C@H](CCC3)CN1[C@@H]1CN2CCC1CC2
> 46	Cc1nc(NS(=O)(=O)c2ccc(N)cc2)nc(C)c1Br
> 46	COc1cc(C(=S)N2CCOCC2)cc(OC)c1OC

Further lines, the compound ahead of its results:

SMILES	IC50 [µM]
CCCCCC(C=O)=Cc1ccccc1	> 46
Cc1c(OCC(F)(F)F)ccnc1CS(=O)c1nc2ccccc2[nH]1 (configuration not stated)	> 46
COC(=O)C1=CCCN(C)C1	> 46
C[C@H]1c2cccc(O)c2C(=O)C2=C(O)[C@]3(O)C(=O)C(C(N)=O)=C(O)[C@@H](N(C)C)[C@@H]3[C@@H](O)[C@@H]21.Cl	> 46
C[C@@H](CC)C(=O)O[C@H]2C[C@@H](C)\C=C3\C=C/[C@H](C)[C@H](CC[C@@H]1C[C@@H](O)CC(=O)O1)[C@@H]23	> 46
O=C1Cc2cc(CCN3CCN(c4nsc5ccccc45)CC3)c(Cl)cc2N1	> 46
O=C(O)CN1C(=O)c2cccc3cccc(c23)C1=O	> 46
O=C(O)c1ccccn1	> 46
O=C1NC(=O)C(c2ccccc2)(c2ccccc2)N1	> 46
COc1ccc2[nH]cc(CCNC(C)=O)c2c1	> 46
Cc1c(-c2ccccc2)oc2c(C(=O)OCCN3CCCCC3)cccc2c1=O.Cl	> 46
CCCCC1=NC2(CCCC2)C(=O)N1Cc1ccc(-c2ccccc2-c2nnn[nH]2)cc1	> 46
O=C1NN=C(C2=CC=C(C=C2)N/N=C(C#N)/C#N)[C@@H](C1)C	> 46
CCN(Cc1ccncc1)C(=O)C(CO)c1ccccc1 (configuration not stated)	> 46
CCOC(=O)c1cccnc1	> 46
O=C(O)CNC(=O)c1ccccc1	> 46
CCCC(C)(COC(N)=O)COC(=O)NC1CC1 (configuration not stated)	> 46
O=[C@](COC(C(C)(C)C)=O)[C@@H]2[C@](CC1)(C)[C@](CC2)([H])[C@@](CC4)([H])[C@@]1([H])[C@](CC3)(C)C4=CC3=O	> 46
CC(=O)[C@@]1(O)CC[C@H]2[C@@H]3CCC4=CC(=O)CC[C@]4(C)[C@H]3CC[C@@]21C	> 46
O=C1O[C@H](CO)[C@@H](O)[C@H](O)[C@H]1O	> 46
Nc1nc(N)nc(-c2cc(Cl)ccc2Cl)n1.O=C(O)/C=C\C(=O)O	> 46
C[C@]43CCC(=O)\C=C4\CC[C@@H]1[C@@H]3CC[C@]2(C)[C@@](O)(CC[C@@H]12)C#C	> 46
COC(=O)CC[C@H](N)C(=O)O	> 46
Cn1cc(NC(=O)c2cc(NC(=O)c3cc(NC=O)cn3C)cn2C)cc1C(=O)NCCC(=N)N	> 46
[C@@]2\1(\C(=C/C(/C=C/1)=O)CC[C@@H]4[C@@H]2CC[C@@]3([C@](O)(C)CC[C@H]34)C)C	> 46
CCN(CC)CCC(=O)N1c2ccccc2Sc2ccc(Cl)cc21	> 46
[O]=[Cd]	> 46
CNCCc1ccccn1.CS(=O)(=O)O	> 46
